Patent US20100113613A1, “CYCLOHEXANE POLYALCOHOL FORMULATION FOR TREATMENT OF DISORDERS OF PROTEIN AGGREGATION” (WARATAH PHARMACEUTICALS, priority 2006, published 2010)
Like-named read-outs stand apart in the source and are kept apart here.

How the values were obtained:
[1] = Single oral and intravenous dose pharmacokinetics, dose range-finding study in beagle dogs; type: in vivo, beagle dog; settings: dogs
Protocol: PK of single oral doses of the scyllo-cyclohexanhexyl was also investigated in a preliminary fashion in a dose range-finding study in 5 beagle dogs. […] The Cmax and AUC values increased proportionally with dose, consistent with observations in the larger study. Estimates of t½ ranged from 2 to 5 hours. Neither dose nor route of administration had any clear effect on t½, MRT, Cl/F or Vdss.

in vivo [2] = settings: rat; for kel / Vd: 28 days
Protocol: Plasma PK of a scyllo-cyclohexanehexyl compound in rats was assessed after 28 days oral dosing of 15, 50 and 150 mg/kg, administered twice daily. […] Indeed, at this dose level, the Vdss, clearance and elimination rates appeared to be reduced with repeated dosing. […] As for single doses, the scyllo-cyclohexanehexyl was absorbed rapidly, with mean tmax observed between 1.2 and 1.3 hours post-dose. […] Estimates of MRT were consistent.

in vivo [3] = settings: dog; for AUC(0-inf) / AUC(0-t) / CL/F / Cmax / MRT / Tmax / VdSS / half-life: po
Protocol: Plasma PK of a scyllo-cyclohexanhexyl in dogs was assessed after 14 days oral dosing of 15, 50 and 150 mg/kg, administered twice daily. As on Day 1 of this study Cmax and AUC values increased proportionally with dose level of scyllo-cyclohexanehexyl. However, dose-normalised exposures appeared to decrease with dose. This contrasts with positive trend observed after acute exposure. […] As for single doses, the scyllo-cyclohexanehexyl was absorbed rapidly, with tmax observed between 1.1 and 1.8 hours post-dose. […] Estimates of MRT were consistent. The Vdss and Cl/F values were similar for all dose levels.

[4] = Brain penetrance: plasma and CSF pharmacokinetics after single oral doses in dogs; type: in vivo, dog; settings: dog
From the text: CSF bathes the central nervous system and sits on the inside of the blood brain barrier. Although a centrally-acting drug will still need to penetrate brain tissue to exert an effect, quantification of drug in CSF may provide a gross estimate of brain-penetrance.

[5] = CSF and plasma levels at end of 14 day repeat dose study in dogs; type: in vivo, dog; settings: dog, oral, after 14 days dosing; for concentration at 24 h: CSF, read-out: CSF level at 24 h; for concentration at 12 h: plasma, read-out: Plasma level at 12 h
Protocol: CSF was also collected from dogs at the end of the 14 day repeat study upon necropsy (approximately 24 hours after the final dose was administered). Levels of the scyllo-cyclohexanehexyl in CSF increased with dose and followed the profile observed in plasma.

[6] = single intravenous dose 240 mg/kg
[7] = CSF, single oral dose 240 mg/kg
[8] = PLASMA LEVELS, single oral dose 20 mg/kg
[9] = PLASMA LEVELS, single oral dose 80 mg/kg
[10] = PLASMA LEVELS, single oral dose 240 mg/kg

- kel ([1]; single intravenous dose 80 mg/kg): 0.21 ± 0.02 h⁻¹
- Cp0 [1, 6]: 127.9 ± 19.1 µg/mL
- kel [1, 6]: 0.30 ± 0.02 h⁻¹
- kel ([1]; single oral dose 20 mg/kg): 0.2 ± 0.2 h⁻¹
- kel ([1]; single oral dose 80 mg/kg): 0.4 ± 0.1 h⁻¹
- kel ([1]; single oral dose 240 mg/kg): 0.4 ± 0.1 h⁻¹
- kel (in vivo [2]; 15 mg/kg): 0.16 ± 0.03 h⁻¹
- kel (in vivo [2]; 50 mg/kg): 0.21 ± 0.03 h⁻¹
- kel (in vivo [2]; 150 mg/kg): 0.22 ± 0.02 h⁻¹
- AUC(0-inf) (in vivo [2]; po, 15 mg/kg): 195 ± 71.7 µg·h/mL
- AUC(0-t) (in vivo [2]; po, 15 mg/kg): 161 ± 57.7 µg·h/mL
- CL/F at 28 days (in vivo [2]; po, 15 mg/kg): 2.9 mL/min/kg
- Cmax at 28 days (in vivo [2]; po, 15 mg/kg): 28500 ± 4900 ng/mL
- MRT at 28 days (in vivo [2]; po, 15 mg/kg): 6.7 ± 0.6 h
- Tmax (in vivo [2]; po, 15 mg/kg): 1.3 ± 0.5 h
- half-life at 28 days (in vivo [2]; po, 15 mg/kg): 4.4 ± 0.6 h
- Vd (in vivo [2]; po, 15 mg/kg): 1.14 L/kg
- AUC(0-inf) (in vivo [2]; po, 50 mg/kg): 298 ± 82.2 µg·h/mL
- AUC(0-t) (in vivo [2]; po, 50 mg/kg): 271 ± 70.7 µg·h/mL
- CL/F at 28 days (in vivo [2]; po, 50 mg/kg): 5.95 mL/min/kg
- Cmax at 28 days (in vivo [2]; po, 50 mg/kg): 59400 ± 8400 ng/mL
- MRT at 28 days (in vivo [2]; po, 50 mg/kg): 4.9 ± 0.8 h
- Tmax (in vivo [2]; po, 50 mg/kg): 1.2 ± 0.4 h
- half-life at 28 days (in vivo [2]; po, 50 mg/kg): 3.3 ± 0.5 h
- Vd (in vivo [2]; po, 50 mg/kg): 1.73 L/kg
- AUC(0-inf) (in vivo [2]; po, 150 mg/kg): 615 ± 129 µg·h/mL
- AUC(0-t) (in vivo [2]; po, 150 mg/kg): 573 ± 128 µg·h/mL
- CL/F at 28 days (in vivo [2]; po, 150 mg/kg): 8.41 mL/min/kg
- Cmax (in vivo [2]; po, 150 mg/kg): 171000 ± 79900 ng/mL
- MRT at 28 days (in vivo [2]; po, 150 mg/kg): 4.6 ± 0.8 h
- Tmax (in vivo [2]; po, 150 mg/kg): 1.2 ± 0.4 h
- half-life at 28 days (in vivo [2]; po, 150 mg/kg): 3.1 ± 0.3 h
- Vd (in vivo [2]; po, 150 mg/kg): 2.34 L/kg
- kel (in vivo [3]; 15 mg/kg): 0.2 ± 0.08 h⁻¹
- kel (in vivo [3]; 50 mg/kg): 0.2 ± 0.1 h⁻¹
- kel (in vivo [3]; 150 mg/kg): 0.3 ± 0.04 h⁻¹
- AUC(0-inf) (in vivo [3]; 15 mg/kg): 95.2 ± 18.6 µg·h/mL
- AUC(0-t) (in vivo [3]; 15 mg/kg): 75.2 ± 9.4 µg·h/mL
- CL/F (in vivo [3]; 15 mg/kg): 0.698 mL/min/kg
- Cmax (in vivo [3]; 15 mg/kg): 16400 ± 4500 ng/mL
- MRT (in vivo [3]; 15 mg/kg): 7.4 ± 1.5 h
- Tmax (in vivo [3]; 15 mg/kg): 1.7 ± 0.5 h
- VdSS (in vivo [3]; 15 mg/kg): 0.3017 ± 0.0419 L/kg
- half-life (in vivo [3]; 15 mg/kg): 4.7 ± 2 h
- AUC(0-inf) (in vivo [3]; 50 mg/kg): 262 ± 52.4 µg·h/mL
- AUC(0-t) (in vivo [3]; 50 mg/kg): 232 ± 50.2 µg·h/mL
- CL/F (in vivo [3]; 50 mg/kg): 0.86 mL/min/kg
- Cmax (in vivo [3]; 50 mg/kg): 59400 ± 13000 ng/mL
- MRT (in vivo [3]; 50 mg/kg): 5.3 ± 1.2 h
- Tmax (in vivo [3]; 50 mg/kg): 1.1 ± 0.5 h
- VdSS (in vivo [3]; 50 mg/kg): 0.2726 ± 0.1217 L/kg
- half-life (in vivo [3]; 50 mg/kg): 3.8 ± 1.2 h
- AUC(0-inf) (in vivo [3]; 150 mg/kg): 557 ± 133 µg·h/mL
- AUC(0-t) (in vivo [3]; 150 mg/kg): 523 ± 123 µg·h/mL
- CL/F (in vivo [3]; 150 mg/kg): 1.2 mL/min/kg
- Cmax (in vivo [3]; 150 mg/kg): 121000 ± 26700 ng/mL
- MRT (in vivo [3]; 150 mg/kg): 4.6 ± 0.4 h
- Tmax (in vivo [3]; 150 mg/kg): 1.8 ± 0.4 h
- VdSS (in vivo [3]; 150 mg/kg): 0.3321 ± 0.0881 L/kg
- half-life (in vivo [3]; 150 mg/kg): 2.9 ± 0.6 h
- AUC(0-inf) ([4]; CSF, single oral dose 20 mg/kg): 38 ± 22.8 µg·h/mL
- AUC(0-t) ([4]; CSF, single oral dose 20 mg/kg): 20.6 ± 6.6 µg·h/mL
- Cmax ([4]; CSF, single oral dose 20 mg/kg): 2300 ± 1400 ng/mL
- Tmax ([4]; CSF, single oral dose 20 mg/kg): 4 ± 1.7 h
- AUC(0-inf) ([4]; CSF, single oral dose 80 mg/kg): 103 ± 13.1 µg·h/mL
- AUC(0-t) ([4]; CSF, single oral dose 80 mg/kg): 98 ± 13.2 µg·h/mL
- Cmax ([4]; CSF, single oral dose 80 mg/kg): 18700 ± 1000 ng/mL
- Tmax ([4]; CSF, single oral dose 80 mg/kg): 2.8 ± 1.5 h
- AUC(0-inf) [4, 7]: 401 ± 204 µg·h/mL
- AUC(0-t) [4, 7]: 384 ± 204 µg·h/mL
- Cmax [4, 7]: 67400 ± 28600 ng/mL
- Tmax [4, 7]: 3 ± 1.7 h
- AUC(0-inf) [4, 8]: 52.7 ± 17.9 µg·h/mL
- AUC(0-t) [4, 8]: 42.6 ± 9.6 µg·h/mL
- Cmax [4, 8]: 6100 ± 3600 ng/mL
- Tmax [4, 8]: 2.8 ± 2.2 h
- AUC(0-inf) [4, 9]: 255 ± 58.6 µg·h/mL
- AUC(0-t) [4, 9]: 250 ± 59.3 µg·h/mL
- Tmax [4, 9]: 2.3 ± 1.3 h
- AUC(0-inf) [4, 10]: 528 ± 74.6 µg·h/mL
- AUC(0-t) [4, 10]: 514.5 ± 0.3 µg·h/mL
- Cmax [4, 10]: 101000 ± 17800 ng/mL
- Tmax [4, 10]: 2.3 ± 1.5 h
- concentration at 24 h ([5]; Dose 30 mg/kg): 4000 ng/mL
- concentration at 24 h ([5]; Dose 100 mg/kg): 7500 ng/mL
- concentration at 24 h ([5]; Dose 300 mg/kg): 10900 ng/mL
- concentration at 12 h ([5]; Dose 30 mg/kg): 3600 ng/mL
- concentration at 12 h ([5]; Dose 100 mg/kg): 5800 ng/mL
- concentration at 12 h ([5]; Dose 300 mg/kg): 8200 ng/mL
Compound: OC1C(O)C(O)C(O)C(O)C1O (centres unmarked) [AZD-103, scyllo-inositol]
